Laboratory results as given in patent publication US10800792B2, “Inhibitors of Bruton's tyrosine kinase and method of their use” (JANSSEN PHARMACEUTICA NV, priority 2015, dated 2020).

These compounds were tested against unphosphorylated-BTK kinase domain (UP-BTK), GST-tagged human BTK (389-659aa) (Homo sapiens (Human), UniProt Q06187) (assay: BTK kinase Lanthascreen binding assay). Conditions: Lanthascreen tracer competition, 60 minutes incubation; pIC50 = negative log of the IC50 in molar.
Sequence of unphosphorylated-BTK kinase domain (UP-BTK), GST-tagged human BTK (389-659aa) (Q06187 389-659): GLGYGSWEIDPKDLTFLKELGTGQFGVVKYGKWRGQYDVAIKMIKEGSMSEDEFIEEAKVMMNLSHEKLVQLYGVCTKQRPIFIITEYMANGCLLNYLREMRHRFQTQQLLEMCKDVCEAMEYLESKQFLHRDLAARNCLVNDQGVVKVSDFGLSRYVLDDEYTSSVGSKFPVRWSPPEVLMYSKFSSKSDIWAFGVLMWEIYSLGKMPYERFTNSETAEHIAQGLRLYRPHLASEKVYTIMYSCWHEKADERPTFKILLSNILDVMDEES
Outline: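 Values are pIC50, i.e. negative log of IC50 in molar, derived from concentration–response fitting. Each compound competes with a fluorescently labelled tracer for the unphosphorylated kinase domain.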
For `C=CC(=O)N1CCC[C@@H](NC(=O)c2sc3nccc4c3c2NC(=O)N4c2cnc(OC3CCC3)cc2C)C1` [Example 672, (R)—N-(1-Acryloylpiperidin-3-yl)-5-(6-cyclobutoxy-4-methylpyridin-3-yl)-4-oxo-4,5-dihydro-3H-1-thia-3,5,8-triazaacenaphthylene-2-carboxamide], the “BTK_I_binding pIC50” value was 7.6.
With `N#CN1CCC(NC(=O)c2sc3nccc4c3c2NC(=O)N4c2ccc(Oc3ccccc3)cc2)CC1` [Example 594, N-(1-Cyanopiperidin-4-yl)-4-oxo-5-(4-phenoxyphenyl)-4,5-dihydro-3H-1-thia-3,5,8-triazaacenaphthylene-2-carboxamide] the “BTK_I_binding pIC50” value was 7.1.
For `COCCC(=O)N1CCC(NC(=O)c2sc3nccc4c3c2NC(=O)N4c2ccc(Oc3ccccc3)cc2)CC1` [Example 597, N-(1-(3-Methoxypropanoyl)piperidin-4-yl)-4-oxo-5-(4-phenoxyphenyl)-4,5-dihydro-3H-1-thia-3,5,8-triazaacenaphthylene-2-carboxamide], the “BTK_I_binding pIC50” value was 6.9.
In the case of `CC(C)(C)OC(=O)N1CCC[C@@H](NC(=O)c2sc3nccc4c3c2NC(=O)N4c2ccc(OC(C)(C)C)cc2)C1` [Example 652, (R)-tert-Butyl 3-(5-(4-(tert-butoxy)phenyl)-4-oxo-4,5-dihydro-3H-1-thia-3,5,8-triazaacenaphthylene-2-carboxamido)piperidine-1-carboxylate], the “BTK_I_binding pIC50” value is reported as under 5.
In the case of `C=CC(=O)N1CCC[C@@H](NC(=O)c2sc3nccc4c3c2NC(=O)N4c2ncc(Oc3ccccc3)nc2C)C1` [Example 657, (R)—N-(1-Acryloylpiperidin-3-yl)-5-(3-methyl-5-phenoxypyrazin-2-yl)-4-oxo-4,5-dihydro-3H-1-thia-3,5,8-triazaacenaphthylene-2-carboxamide], the “BTK_I_binding pIC50” value is reported as 7.7.
In the case of `O=C(NC1CCN(C(=O)/C=C/CO)CC1)c1sc2nccc3c2c1NC(=O)N3c1ccc(Oc2ccccc2)cc1` [Example 596, (E)-N-(1-(4-Hydroxybut-2-enoyl)piperidin-4-yl)-4-oxo-5-(4-phenoxyphenyl)-4,5-dihydro-3H-1-thia-3,5,8-triazaacenaphthylene-2-carboxamide], the “BTK_I_binding pIC50” value is reported as 6.9.

Same assay, conditions: Lanthascreen tracer competition, 60 minutes incubation; pIC50 = negative log of the IC50 in molar; read-out: BTK_I_binding pIC50 (converted)
For `Cc1nc(Oc2ccccc2)ccc1N1C(=O)Nc2c(C(=O)N[C@@H]3CCCN(C(=O)OC(C)(C)C)C3)sc3nccc1c23` [Example 743, (R)-tert-Butyl 3-(5-(2-methyl-6-phenoxypyridin-3-yl)-4-oxo-4,5-dihydro-3H-1-thia-3,5,8-triazaacenaphthylene-2-carboxamido)piperidine-1-carboxylate], the IC50 was 1580 nM.

Same assay, conditions: pIC50 = negative log of the IC50 in molar; 60 minutes incubation, 50 nM Tracer 236
`O=C(N[C@@H]1CCCNC1)c1sc2nccc3c2c1NC(=O)N3c1c(F)cc(Oc2ccccc2)cc1F` [Example 235, (R)-5-(2,6-difluoro-4-phenoxyphenyl)-4-oxo-N-(piperidin-3-yl)-4,5-dihydro-3H-1-thia-3,5,8-triazaacenaphthylene-2-carboxamide] was tested, and the “BTK_I_binding pIC50” value was 7.0.
With `Cc1cc(Oc2ccccc2)ccc1N1C(=O)Nc2c(C(=O)N[C@@H]3CCCN(C(=O)/C=C/C4CC4)C3)sc3nccc1c23` [Example 199, (R,E)-N-(1-(3-Cyclopropylacryloyl)piperidin-3-yl)-5-(2-methyl-4-phenoxyphenyl)-4-oxo-4,5-dihydro-3H-1-thia-3,5,8-triazaacenaphthylene-2-carboxamide] the “BTK_I_binding pIC50” value was 6.6.
For `C=CC(=O)N1C[C@@H](F)[C@@H](NC(=O)c2sc3nccc4c3c2NC(=O)N4c2ccc(Oc3ccccc3)cc2C)C1` [Example 37, N-((3S,4R)-1-Acryloyl-4-fluoropyrrolidin-3-yl)-5-(2-methyl-4-phenoxyphenyl)-4-oxo-4,5-dihydro-3H-1-thia-3,5,8-triazaacenaphthylene-2-carboxamide], the “BTK_I_binding pIC50” value was 7.6.
In the case of `CO[C@H]1CNC[C@H](NC(=O)c2sc3nccc4c3c2NC(=O)N4c2ccc(Oc3ccccc3)cc2C)C1` [Example 224, N-((3R,5R)-5-Methoxypiperidin-3-yl)-5-(2-methyl-4-phenoxyphenyl)-4-oxo-4,5-dihydro-3H-1-thia-3,5,8-triazaacenaphthylene-2-carboxamide], the “BTK_I_binding pIC50” value is reported as 6.8.
In the case of `C=CC(=O)N1CCC[C@@H](NC(=O)c2sc3nccc4c3c2NC(=O)N4c2ccccc2F)C1` [Example 194, (R)—N-(1-Acryloylpiperidin-3-yl)-5-(2-fluorophenyl)-4-oxo-4,5-dihydro-3H-1-thia-3,5,8-triazaacenaphthylene-2-carboxamide], the “BTK_I_binding pIC50” value is reported as 6.9.

Same assay, conditions: pIC50 = negative log of the IC50 in molar; 60 minutes incubation, 50 nM Tracer 236; read-out: BTK_I_binding pIC50 (converted)
`C=C(Cl)C(=O)N1CCC[C@@H](NC(=O)c2sc3nccc4c3c2NC(=O)N4c2ccc(Oc3ccccc3)cc2C)C1` [Example 26, (R)—N-(1-(2-Chloroacryloyl)piperidin-3-yl)-5-(2-methyl-4-phenoxyphenyl)-4-oxo-4,5-dihydro-3H-1-thia-3,5,8-triazaacenaphthylene-2-carboxamide] gave an IC50 of 50.1 nM.

Same assay, conditions: unphosphorylated-BTK kinase domain, 50 nM Tracer 236, 60 minutes; pIC50 = negative log of the IC50 in molar
With `Cc1cc(Oc2ccccc2)ccc1N1C(=O)Nc2c(C(=O)N[C@@H]3CCNC(C)C3)sc3nccc1c23` (single isomer, unassigned) [Example 434, 5-(*S)-(2-Methyl-4-phenoxyphenyl)-N-((4*R)-2-methylpiperidin-4-yl)-4-oxo-4,5-dihydro-3H-1-thia-3,5,8-triazaacenaphthylene-2-carboxamide] the “BTK_I_binding pIC50” value was 7.3.
With `Cc1cc(Oc2ccccc2)ccc1N1C(=O)Nc2c(C(=O)NC[C@H]3CCCN3C)sc3nccc1c23` [Example 285, (R)-5-(2-Methyl-4-phenoxyphenyl)-N-((1-methylpyrrolidin-2-yl)methyl)-4-oxo-4,5-dihydro-3H-1-thia-3,5,8-triazaacenaphthylene-2-carboxamide] the “BTK_I_binding pIC50” value was 6.2.
`C=CC(=O)N1C[C@H](NC(=O)c2sc3nccc4c3c2NC(=O)N4c2ccc(Oc3ccccc3)cc2)[C@@H](OC)C1` [Example 548, N-((3S,4S)-1-Acryloyl-4-methoxypyrrolidin-3-yl)-4-oxo-5-(4-phenoxyphenyl)-4,5-dihydro-3H-1-thia-3,5,8-triazaacenaphthylene-2-carboxamide] was tested, and the “BTK_I_binding pIC50” value was 6.9.
For `C=CC(=O)N1CCC[C@@H](NC(=O)c2sc3nccc4c3c2NC(=O)N4c2cccc(OC(F)(F)F)c2)C1` [Example 568, (R)—N-(1-Acryloylpiperidin-3-yl)-4-oxo-5-(3-(trifluoromethoxy)phenyl)-4,5-dihydro-3H-1-thia-3,5,8-triazaacenaphthylene-2-carboxamide], the “BTK_I_binding pIC50” value was 7.4.
`Cc1cccc(-c2cccc(N3C(=O)Nc4c(C(=O)N[C@@H]5CCCNC5)sc5nccc3c45)c2)c1` [Example 553, (R)-5-(3′-Methyl-[1,1′-biphenyl]-3-yl)-4-oxo-N-(piperidin-3-yl)-4,5-dihydro-3H-1-thia-3,5,8-triazaacenaphthylene-2-carboxamide] was tested, and the “BTK_I_binding pIC50” value was 6.8.
For `COC(C)(C)/C=C(\C#N)C(=O)N1CCC[C@@H](NC(=O)c2sc3nccc4c3c2NC(=O)N4c2ccc(Oc3ccccc3)cc2C)C1` (single isomer, unassigned) [Example 450, (R,*E)-N-(1-(2-Cyano-4-methoxy-4-methylpent-2-enoyl)piperidin-3-yl)-5-(*S)-(2-methyl-4-phenoxyphenyl)-4-oxo-4,5-dihydro-3H-1-thia-3,5,8-triazaacenaphthylene-2-carboxamide], the “BTK_I_binding pIC50” value was 7.6.
For `Cc1cc(OC(C)C)ccc1N1C(=O)Nc2c(C(=O)N[C@@H]3CCCN(C)C3)sc3nccc1c23` [Example 332, (R)-5-(4-Isopropoxy-2-methylphenyl)-N-(1-methylpiperidin-3-yl)-4-oxo-4,5-dihydro-3H-1-thia-3,5,8-triazaacenaphthylene-2-carboxamide], the “BTK_I_binding pIC50” value was 5.5.
For `Cc1cc(Oc2ccccc2)c(F)cc1N1C(=O)Nc2c(C(=O)N[C@@H]3CCCN(C)C3)sc3nccc1c23` [Example 303, (R)-5-(5-Fluoro-2-methyl-4-phenoxyphenyl)-N-(1-methylpiperidin-3-yl)-4-oxo-4,5-dihydro-3H-1-thia-3,5,8-triazaacenaphthylene-2-carboxamide], the “BTK_I_binding pIC50” value was 6.0.

Same assay, conditions: unphosphorylated-BTK kinase domain, 60 minutes incubation, 50 nM Tracer 236; pIC50 = negative log of the IC50 in molar
With `Cc1c(Oc2ccccc2)cccc1N1C(=O)Nc2c(C(=O)N[C@H]3CCCN(C(=O)/C(C#N)=C/C4CC4)C3)sc3nccc1c23` [Example 957, (S,E)-N-(1-(2-Cyano-3-cyclopropylacryloyl)piperidin-3-yl)-5-(2-methyl-3-phenoxyphenyl)-4-oxo-4,5-dihydro-3H-1-thia-3,5,8-triazaacenaphthylene-2-carboxamide] the “BTK_I_binding pIC50” value was under 5.
`O=C(N[C@H]1CCN(C(=O)c2ccccc2)C1)c1sc2nccc3c2c1NC(=O)N3c1ccc(Oc2ccccc2)cc1` [Example 940, (S)—N-(1-benzoylpyrrolidin-3-yl)-4-oxo-5-(4-phenoxyphenyl)-4,5-dihydro-3H-1-thia-3,5,8-triazaacenaphthylene-2-carboxamide] was tested, and the “BTK_I_binding pIC50” value was 5.9.
With `O=C(NC1CCOCC1)c1sc2nccc3c2c1NC(=O)N3c1ccc(Oc2ccccc2)cc1` [Example 909, 4-Oxo-5-(4-phenoxyphenyl)-N-(tetrahydro-2H-pyran-4-yl)-4,5-dihydro-3H-1-thia-3,5,8-triazaacenaphthylene-2-carboxamide] the “BTK_I_binding pIC50” value was 6.7.
For `Cc1ccc(N2C(=O)Nc3c(C(=O)N[C@@H]4CCCNC4)sc4nccc2c34)cc1` [Example 952, (R)-4-Oxo-N-(piperidin-3-yl)-5-(p-tolyl)-4,5-dihydro-3H-1-thia-3,5,8-triazaacenaphthylene-2-carboxamide], the “BTK_I_binding pIC50” value was 5.1.
